In ChEMBL document CHEMBL5647697, “Akt inhibition synergizes with polycomb repressive complex 2 inhibition in the treatment of multiple myeloma” (2019):

Columns and labels:
Format in all cases: functional
MM1.S [1] = assay: Induction of apoptosis in human MM1.S cells assessed as late apoptotic cells at 5 micromol/L incubated for 48 hrs by annexin V/PI staining based flow cytometry (reference value: 3.6%); settings: dose 5 µmol/L, at 5 µM
MM1.S [2] = assay: Induction of apoptosis in human MM1.S cells assessed as necrotic cells at 5 micromol/L incubated for 48 hrs by annexin V/PI staining based flow cytometry (reference value: 0.17%); settings: dose 5 µmol/L, at 5 µM
MM1.S [3] = assay: Induction of apoptosis in human MM1.S cells assessed as early apoptotic cells at 5 micromol/L incubated for 48 hrs by annexin V/PI staining based flow cytometry (reference value: 8.03%); settings: dose 5 µmol/L, at 5 µM
MM1.S [4] = assay: Induction of apoptosis in human MM1.S cells assessed as viable cells at 5 micromol/L incubated for 48 hrs by annexin V/PI staining based flow cytometry (reference value: 88.2%); settings: dose 5 µmol/L, read-out: Activity

With `CCCc1cc(C)[nH]c(=O)c1CNC(=O)c1cc(-c2ccc(N3CCN(C(C)C)CC3)nc2)cc2c1cnn2C(C)C` as the compound, how does the Activity (MM1.S [1]) read?
Its Activity is 15.9%.

And the Activity (MM1.S [2])?
The Activity was 0.41%.

What about the Activity (MM1.S [3]) of the same compound?
Its Activity is 18.8%.

And the viability at 5 µM (MM1.S [4])?
The viability at 5 µM was 64.9%.
